Reference: PubChem BioAssay AID2060896 (Molecular Pharmacology Branch, DTP, NCI, 2025)

System: 941728-121-R-J1-PDC complex spheroid viability
Assay: Anticancer human tumor 941728-121-R-J1-PDC patient-derived lung adenocarcinoma cell line growth inhibition [RAS]
Settings: for IC50: curve of first compound; for viability, T/C: stronger effect = lower value; active means viability on the fitted dose curve at most 10% of control; inactive means the rest
Excerpt: RAS pathway inhibitors in Combinations in Complex Spheroids
A high-throughput screen of multi-cell type tumor spheroids was designed to identify active combinations of RAS pathway inhibitors and targeted small molecules. Complex spheroids include a stromal component modeled by human endothelial cells (HUVEC) and fibroblasts modeled by human mesenchymal stem cells (MSCs). The concentration ranges selected for each drug and investigational agent were based upon clinically achievable concentrations if the clinical Cmax of the agent was known.
Compounds. The drugs and investigational agents: abemaciclib (NSC768073), cobimetinib (NSC768068), divarasib (GDC6063, NSC841802), docetaxel (NSC628503), GDC-1971 (RLY-1971, NSC841576), gemcitabine (NSC613327), inavolisib (NSC800729), ipatasertib (NSC767898), KB-0742 (NSC834161), MRTX-1133 (NSC836407), osimertinib (NSC779217), RMC-4630 (NSC839698), RMC-6236 (NSC851965), RMC-6291 (NSC852671), Ro-3306 (NSC812927), sapanisertib (NSC764658), SN-38 (NSC673596), staurosporine (NSC755774), SY5609 (NSC837396), and tovorafenib (DAY101, NSC766906), were obtained from the National Cancer Institute (NCI) Developmental Therapeutics Program Chemical Repository. The FDA-approved anticancer drug set is available from the NCI Developmental Therapeutics Program. […] The stock solutions were prepared in dimethyl sulfoxide (DMSO, Sigma-Aldrich, St. Louis, MO, cat. D2650) at 800-fold the tested concentration and stored at -70 degrees C prior to their use. All drugs and investigational agents were tested over a range starting from a high concentration at or near the clinical Cmax and decreasing in half-log increments. If the clinical Cmax for an agent had not been determined, the highest concentration tested was 10 microM.
Cell Culture. All cells were maintained in an incubator at 37 degrees C and 5% CO2 with 95% humidity. The PDC lines were cultured according to standard operating procedures established by the NCI PDMR. All PDCs were thawed and cultured in Matrigel-coated flasks prepared with a working solution of 1X Ham's F-12 nutrient mix, without supplementation (Invitrogen, Waltham, MA, cat. 11765054), 100 U/mL penicillin-streptomycin (Invitrogen, cat. 15140122), and 2.5% Matrigel (Corning Inc., Corning, NY, cat. 354248) for the first three passages. The 362531-283-R-J2-PDC and 782815-120-R-J1-PDC lines were cultured in 6C/Colon 1B media, which includes advanced DMEM/F-12 (Thermo Fisher Scientific, cat. 12634028), 10 mM HEPES (Thermo Fisher Scientific, cat. 15630080), 1X GlutaMAX supplement (Thermo Fisher Scientific, cat. 35050061), 0.1 mg/mL primocin (InvivoGen, San Diego, CA, cat. ant-pm-2), 10% defined fetal bovine serum, heat inactivated (HyClone Laboratories Inc., Logan, UT, cat. SH30070.03HI), 50% L-WRN conditioned media (ATCC, cat. CRL-3276), 1.25 mM N-Acetyl-L-cysteine (Sigma-Aldrich, cat. A9165), 10 mM nicotinamide (Sigma-Aldrich, cat. N0636), 1X B-27 supplement (Thermo Fisher Scientific, cat. 17504044), 1X N-2 supplement (Thermo Fisher Scientific, cat. 17502048), 50 ng/mL human EGF (Thermo Fisher Scientific, cat. PHG0311), and 10 microM Y-27632 dihydrochloride (Tocris Bioscience, cat. 1254). The K12877-001-R-J1-PDC line was cultured in 6I media, which includes all 6C/Colon 1B media plus 10 ng/mL human FGF-10 (PeproTech, cat. 100-26), 1 ng/mL human FGF-2 (PeproTech, cat. 100-18B), 1 µM prostaglandin E2 (Tocris Bioscience, cat. 2296), […] hydrocortisone (Sigma-Aldrich, cat. H4001), and […] bovine insulin (Sigma-Aldrich, cat. I6634). The K86415-001-R-J1-PDC line was cultured in 6D media, which includes all 6C/Colon 1B media components minus the L-WRN conditioned media. The 485176-168-R4-J1-PDC was cultured in PANC media, which includes all 6C/Colon 1B media plus 100 ng/mL human FGF-10 (PeproTech, cat. 100-26), 500 nM SB-431542 (Selleckchem, cat. S1067), and 10 nM gastrin (Tocris Bioscience, cat. 3006). […]
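Further: spheroids exposed to compounds for 7 days before readout.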

O=C(c1ccc(F)c(F)c1Nc1ccc(I)cc1F)N1CC(O)([C@@H]2CCCCN2)C1 + C#Cc1c(F)ccc2cc(O)cc(-c3ncc4c(N5CC6CCC(C5)N6)nc(OCC56CCCN5CC(F)C6)nc4c3F)c12
< 3.16 nM: IC50 (second compound 0.316 µM) | IC50 (second compound 1 µM) | IC50 (second compound 3.16 µM) | IC50 (second compound 10 µM)
9.8 nM: IC50 (second compound 0.1 µM)
inactive: viability, T/C (second compound 0.0316 µM, first compound 0.00316 µM) 71% | viability, T/C (second compound 0.0316 µM, first compound 0.01 µM) 55.9% | viability, T/C (second compound 0.0316 µM, first compound 0.0316 µM) 37.7% | viability, T/C (second compound 0.0316 µM, first compound 0.1 µM) 31.2% | viability, T/C (second compound 0.0316 µM, first compound 0.316 µM) 29.6% | viability, T/C (second compound 0.0316 µM, first compound 1 µM) 24.4% | viability, T/C (second compound 0.1 µM, first compound 0.00316 µM) 70.6% | viability, T/C (second compound 0.1 µM, first compound 0.01 µM) 49.2% | viability, T/C (second compound 0.1 µM, first compound 0.0316 µM) 37% | viability, T/C (second compound 0.1 µM, first compound 0.1 µM) 31% | viability, T/C (second compound 0.1 µM, first compound 0.316 µM) 28.3% | viability, T/C (second compound 0.1 µM, first compound 1 µM) 23.9% | viability, T/C (second compound 0.316 µM, first compound 0.00316 µM) 47.9% | viability, T/C (second compound 0.316 µM, first compound 0.01 µM) 44.9% | viability, T/C (second compound 0.316 µM, first compound 0.0316 µM) 31.9% | viability, T/C (second compound 0.316 µM, first compound 0.1 µM) 29% | viability, T/C (second compound 0.316 µM, first compound 0.316 µM) 30.5% | viability, T/C (second compound 0.316 µM, first compound 1 µM) 21.6% | viability, T/C (second compound 1 µM, first compound 0.00316 µM) 33.8% | viability, T/C (second compound 1 µM, first compound 0.01 µM) 29.7% | viability, T/C (second compound 1 µM, first compound 0.0316 µM) 31.9% | viability, T/C (second compound 1 µM, first compound 0.1 µM) 29.1% | viability, T/C (second compound 1 µM, first compound 0.316 µM) 29.2% | viability, T/C (second compound 1 µM, first compound 1 µM) 20.8% | viability, T/C (second compound 3.16 µM, first compound 0.00316 µM) 24.5% | viability, T/C (second compound 3.16 µM, first compound 0.01 µM) 28.5% | viability, T/C (second compound 3.16 µM, first compound 0.0316 µM) 27.4% | viability, T/C (second compound 3.16 µM, first compound 0.1 µM) 25.7% | viability, T/C (second compound 3.16 µM, first compound 0.316 µM) 21.9% | viability, T/C (second compound 3.16 µM, first compound 1 µM) 19.1% | viability, T/C (second compound 10 µM, first compound 0.00316 µM) 22% | viability, T/C (second compound 10 µM, first compound 0.01 µM) 18.8% | viability, T/C (second compound 10 µM, first compound 0.0316 µM) 17.7% | viability, T/C (second compound 10 µM, first compound 0.1 µM) 18.1% | viability, T/C (second compound 10 µM, first compound 0.316 µM) 15.5% | viability, T/C (second compound 10 µM, first compound 1 µM) 12.2%
14.5 nM: IC50 (second compound 0.0316 µM)

CC(Nc1ccc2c(c1)OCCn1cc(N3C(=O)OCC3C(F)F)nc1-2)C(N)=O (centres undefined) + CCn1c(-c2cccnc2C(C)OC)c2c3cc(ccc31)N1CCOC(CC(NC(=O)C(C(C)C)N(C)C(=O)C3(F)CCN(C(=O)C#CC(C)(C)N(C)C)CC3)C(=O)N3CCCC(N3)C(=O)OCC(C)(C)C2)C1
inactive: viability, T/C (second compound 0.000949 µM, first compound 0.0316 µM) 18.5% | viability, T/C (second compound 0.000949 µM, first compound 0.1 µM) 20.6% | viability, T/C (second compound 0.000949 µM, first compound 0.316 µM) 12.5% | viability, T/C (second compound 0.000949 µM, first compound 1 µM) 15.8% | viability, T/C (second compound 0.000949 µM, first compound 3.16 µM) 13.3% | viability, T/C (second compound 0.000949 µM, first compound 10 µM) 9.24% | viability, T/C (second compound 0.003 µM, first compound 0.0316 µM) 20.5% | viability, T/C (second compound 0.003 µM, first compound 0.1 µM) 17.2% | viability, T/C (second compound 0.003 µM, first compound 0.316 µM) 14.4% | viability, T/C (second compound 0.003 µM, first compound 1 µM) 14.3% | viability, T/C (second compound 0.003 µM, first compound 3.16 µM) 13.8% | viability, T/C (second compound 0.003 µM, first compound 10 µM) 9.35% | viability, T/C (second compound 0.00949 µM, first compound 0.0316 µM) 18.9% | viability, T/C (second compound 0.00949 µM, first compound 0.1 µM) 15.3% | viability, T/C (second compound 0.00949 µM, first compound 0.316 µM) 15.1% | viability, T/C (second compound 0.00949 µM, first compound 1 µM) 14.7% | viability, T/C (second compound 0.00949 µM, first compound 3.16 µM) 11.5% | viability, T/C (second compound 0.00949 µM, first compound 10 µM) 11.7% | viability, T/C (second compound 0.03 µM, first compound 0.0316 µM) 19.8% | viability, T/C (second compound 0.03 µM, first compound 0.1 µM) 18% | viability, T/C (second compound 0.03 µM, first compound 0.316 µM) 14.6% | viability, T/C (second compound 0.03 µM, first compound 1 µM) 15.7% | viability, T/C (second compound 0.03 µM, first compound 3.16 µM) 9.34% | viability, T/C (second compound 0.03 µM, first compound 10 µM) 12.8% | viability, T/C (second compound 0.0949 µM, first compound 0.0316 µM) 18.8% | viability, T/C (second compound 0.0949 µM, first compound 0.1 µM) 18.4% | viability, T/C (second compound 0.0949 µM, first compound 0.316 µM) 15.8% | viability, T/C (second compound 0.0949 µM, first compound 1 µM) 11.8% | viability, T/C (second compound 0.0949 µM, first compound 3.16 µM) 12.1% | viability, T/C (second compound 0.0949 µM, first compound 10 µM) 13.7% | viability, T/C (second compound 0.3 µM, first compound 0.0316 µM) 19.9% | viability, T/C (second compound 0.3 µM, first compound 0.1 µM) 18.8% | viability, T/C (second compound 0.3 µM, first compound 0.316 µM) 14.6% | viability, T/C (second compound 0.3 µM, first compound 1 µM) 14.7% | viability, T/C (second compound 0.3 µM, first compound 3.16 µM) 13.5% | viability, T/C (second compound 0.3 µM, first compound 10 µM) 12.3%
< 31.6 nM: IC50 (second compound 0.000949 µM) | IC50 (second compound 0.003 µM) | IC50 (second compound 0.00949 µM) | IC50 (second compound 0.03 µM) | IC50 (second compound 0.0949 µM) | IC50 (second compound 0.3 µM)
